# Source: US5637570A, “Disubstituted and trisubstituted derivatives of 2,3:4,6-di-O-isopropylidene-α-L-xylo-2-hexulofuranosonic acid having anti-cancer, anti-inflammatory and anti-proliferative activity” (Chemora Pharmochem, priority 1995, dated 1997)
# Read-outs that look alike come from different tables or passages of the source.
# Tests used:
# [1] = tested on: COLO 205 Colon Tumor Xenografts; experiment: Early Stage SC COLO 205 Colon Tumor Xenografts; details: for Drug Deaths: of 6 mice; for Opt. % T/C: >40 considered inactive
# Experimental: (§3) In this in vivo model Murine or human tumor fragments (30 mg) are implanted subcutaneously into the axillary region of pathogen-free immunocompetent or immunodefficient mice, respectively, on experimental day 0. Test agent treatment is initiated either on the day which is historically associated with the start of tumor growth, or when the tumor is palpable. Tumor size and body weights are obtained approximately two times per week. Tumor weights are calculated from caliper measurements of tumor dimensions in mm using the formula for a prolate ellipsoid:
# (§4) (L×W^2)/2; where L is the longer of the 2 measurements
# (§5) Generally, tumor size is monitored until an upper weight limit of 500 mg is attained.
# [2] = tested on: P388 Murine Leukemia; experiment: P388 Murine Leukemia in vivo
# Experimental: Two of the compounds of the present invention (Ic and Im) were also tested against P388 Murine Leukemia.
# [3] = tested on: mouse spleen cell (T-lymphocyte); experiment: Concanavalin A (CON-A) assay, mouse spleen cell mitogen induced blastogenesis; type: cell-based; details: Anti-inflammatory/Anti-proliferative Activity
# Description: iii Concanavalin A assay (the mouse spleen cell mitogen induced blastogenesis).
# (§1) The MLR assay measures the effects of a study compound on the activation and antigen presentation of T-lymphocytes, therefore determining immunomodulatory properties. The mouse spleen cell mitogen-induced blastogenesis and the BUD-8 human fibroblast proliferation assays measure the effects of the compounds of the present invention on cellular proliferation of cells involved in the pathogenesis of autoimmune diseases. These two assays are appropriate as screens to ascertain anti-inflammatory and/or autoimmune diseases.
# It is known that the induction and maintenance of most inflammatory diseases are typically due to the unrestricted activity of T-lymphocytes. Therefore, it is advantageous to identify compounds which are modulators of T-lymphocyte activity for eventual use in the regulation of inflammatory diseases, including acquired immune deficiency syndrome, psoriasis, systemic lupus, erythromatosus, and rheumatoid arthritis.
# (§2) The detailed experimental procedure for the above-mentioned assays is described in detail in U.S. Pat. Nos. 5,360,790 and 5,367,062 incorporated herein by reference.
# [4] = tested on: human tumor cell lines (approximately 60); experiment: NCI in vitro human tumor cell line screen (SRB), mean graph midpoints over all cell lines; type: cell-based
# Experimental: In performing in vitro human tumor cell line assay, a total of approximately 60 human tumor cell lines derived from ten cancer types (leukemia, non-small cell lung cancer, small cell lung cancer, colon cancer, CNS cancer, melanoma, ovarian cancer, renal cancer, breast cancer and prostate cancer) were used in this assay. Compounds were tested at different concentrations against every cell line. All lines are inoculated into a series of standard 96-well microtiter plates on day 0, in the majority of cases at 20,000 cells/well, and then pre-incubated in the absence of testing agent for 24 hours. A testing agent was then added in five 10-fold dilutions and incubated for a further period of 48 hours. Following this, the cells are fixed in situ, washed, and dried. Sulforhodamine B (SRB, protein binding dye) is added, followed by further washing and drying of the stained adherent cell mass. The bound stain is solubilized and measured spectrophotometrically on an automatic plate reader.
# For each compound, dose response curves for each cell line were measured with five different drug concentrations, and the concentration causing 50% cell growth inhibition (GI50), total cell growth inhibition (TGI, 0% growth), and 50% cell death (LC50, -50% growth) compared with the control was calculated. […] In these graphs, the mean logarithmic value of GI50 in all cell lines for each tested compound is used as the midpoint of that bar graph.
# [5] = tested on: T cells (splenic T cell proliferation, co-cultured spleen cells from two strains of mice); experiment: Mixed lymphocyte response (MLR); type: cell-based; details: Mus musculus, Anti-inflammatory/Anti-proliferative Activity
# Description: i Mixed lymphocyte response (MLR).
# as §1
# The MLR is a classical assay used to measure T cell function by studying the proliferation response of T cells which are activated in vitro by genetically disparate stimulator cells. This is accomplished by co-culturing spleen cells from two different strains of mice. Splenic T cell proliferation occurs as a result of cellular activation signals generated by the ongoing cellular interactions.
# as §2
# [6] = tested on: BUD-8 human fibroblast; experiment: BUD-8 human cell line fibroblast proliferation assay (FIB.); type: cell-based; details: Anti-inflammatory/Anti-proliferative Activity
# Description: ii BUD-8 human cell line fibroblast proliferation assay.
# as §1
# The skin cell fibroblast line, BUD-8, was originally derived from the normal skin of a person and can now be obtained from the American Type Culture Collection, Rockville, Md.
# as §2
# [7] = tested on: UACC-62 Melanoma Xenografts; experiment: Early Stage Subcutaneous Tumor Model UACC-62 Melanoma Xenografts; details: for Drug Deaths: of 6 mice; for Opt. % T/C: >40 considered inactive
# Experimental: as §3, §4, §5
# [8] = tested on: SK-MEL-28 Melanoma Xenografts; experiment: Early Stage SK-MEL-28 Melanoma Xenografts; details: for Drug Deaths: of 6 mice; for Opt. % T/C: >40 considered inactive
# Experimental: as §3, §4, §5
# [9] = 200 mg/kg/dose IP Q4D × 3, day 7
# [10] = Ic 60, 40 and 27 mg/kg/dose, Im 120, 80 and 54 mg/kg/dose
# [11] = 134 mg/kg/dose IP Q4D × 3, day 6
# [12] = 200 mg/kg/dose IP Q4D × 3, day 6
# [13] = 200 mg/kg/dose IP QD × 5, day 3
smiles,measurement,setting,value
"CCCCCCCCCCCCOC[C@@]12O[C@@H](CN3CCOCC3)[C@@H](O)[C@@H]1OC(C)(C)O2 [Ic, 2,3-O-Isopropylidene-6-deoxy-6-(1-morpholinyl)-1-O-dodecyl-α-L-xylo-2-hexulofuranose]",Drug Deaths,"[1]; 90 mg/kg/dose IP Q4D × 3, day 7",0
same,Drug Deaths,"[1]; 134 mg/kg/dose IP Q4D × 3, day 7",1
same,Opt. % T/C,"[1]; 134 mg/kg/dose IP Q4D × 3, day 7, optimum on day 29",40%
same,Opt. % T/C,[1]; [9],Toxic
same,Drug Deaths,[1]; [9],6
same,Opt. % T/C,"[1]; Ic 90 mg/kg/dose IP Q4D × 3, day 7, optimum on day 36",43%
same,antitumor activity,[2]; [10],only slight antitumor activity
same,toxicity,[2]; [10],toxic at the higher dose levels
same,maximally tolerated dose,"[2]; mouse, in vivo",a maximally tolerated dose was not achieved
same,IC50,[3],10.3 µM
same,CC50,"[4]; Homo sapiens, 50% cell death (-50% growth), average of all cell lines, 48 h, read-out: log10 LC50 mean graph midpoint (converted)",56.2 µM
same,GI50,"[4]; Homo sapiens, 50% cell growth inhibition, average of all cell lines, 48 h, read-out: GI50 (average)",31.6 µM
same,GI50,"[4]; Homo sapiens, average of all cell lines, log10 of molar concentration, 48 h, read-out: log10 I50 (log10 GI50 mean graph midpoint) (converted)",14.5 µM
same,IC (TGI),"[4]; Homo sapiens, total cell growth inhibition (0% growth), average of all cell lines, 48 h, read-out: log10 TGI mean graph midpoint (converted)",29.5 µM
same,in vitro activity in words,"[4]; various in vitro cell lines, IC50, average GI50, mean graph pattern",significant activity in various in vitro cell lines
same,IC50,[5],< 1 µM
same,IC50,[6],14.8 µM
same,Drug Deaths,"[7]; 90 mg/kg/dose IP Q4D × 3, day 6",0
same,Opt. % T/C,"[7]; 90 mg/kg/dose IP Q4D × 3, day 6, optimum on day 16",39%
same,Opt. % T/C,[7]; [11],Toxic
same,Drug Deaths,[7]; [11],6
same,Opt. % T/C,[7]; [12],Toxic
same,Drug Deaths,[7]; [12],6
same,Drug Deaths,"[8]; 90 mg/kg/dose IP QD × 5, day 3",0
same,Drug Deaths,"[8]; 134 mg/kg/dose IP QD × 5, day 3",1
same,Opt. % T/C,"[8]; 134 mg/kg/dose IP QD × 5, day 3, optimum on day 9",36%
same,Opt. % T/C,[8]; [13],Toxic
same,Drug Deaths,[8]; [13],6
same,Opt. % T/C,"[8]; Ic 90 mg/kg/dose IP QD × 5, day 3, optimum on day 16",35%
